In brackets after ≈: the same amount, converted by molar mass. Each block holds one compound with its values, some of them ahead of it.
How the values were obtained:
LytG (GH73) = LytG (GH73) (Bacillus subtilis, UniProt O32083); test: In vitro GlcNAcase inhibition, turbidometric assay with purified peptidoglycan; assay type: biochemical, B. subtilis
Text: FIG. 9 is a graph illustrating inhibition of LytG (GH73) from B. subtilis by fgka. The assay involved in vitro GlcNAcase inhibition of B. subtilis LytG by fgka, as measured using turbidometric assays with purified peptidoglycan (Horsburgh, et al., 2003, Biochemistry 42:257).

FlgJ (GH73) = FlgJ (GH73) (Salmonella typhimurium, UniProt P15931); test: Inhibition of FlgJ (GH73); assay type: biochemical, Salmonella enterica
Experimental: Activity was measured as described in Herlihey, et al. 2014, J. Biol Chem 289(45):31029.

B. subtilis [1] = test: Resazurin microtiter MIC / serial dilution whole-cell assay; conditions: for Minimum inhibitory concentration (MIC), lowest concentration preventing color change blue to pink: serial dilution 250 μM down to 7.9 μM, triplicate, plates incubated only 30 minutes due to experimental error
E. coli = conditions: cited from earlier work
B. subtilis [2] = test: Single concentration (250 μM) whole-cell resazurin fluorescence assay; conditions: for degree of inhibition (smallest values of fluorescence): 250 μM inhibitor, fluorescence at 60 min
S. aureus = test: MIC against Gram-positive organisms: S. aureus; assay type: cell-based, Staphylococcus aureus; conditions: for MIC: Staphylococcus aureus, read-out: Minimum inhibitory concentration (MIC) S. aureus
S. pneumoniae = test: MIC against Gram-positive organisms: S. pneumoniae; assay type: cell-based, Streptococcus pneumoniae; conditions: for MIC: Streptococcus pneumoniae, read-out: Minimum inhibitory concentration (MIC) S. pneumoniae
B. subtilis [3] = test: MIC against Gram-positive organisms: B. subtilis; assay type: cell-based; conditions: Bacillus subtilis; read-out: Minimum inhibitory concentration (MIC) B. subtilis
[4] = tested on: peptidoglycan synthesis/metabolism in B. subtilis; test: UDP-MurNAc-pentapeptide accumulation (nucleotide sugar extraction, C18-RP-HPLC); assay type: cell-based, Bacillus subtilis; conditions: 4×MIC for 1 h after chloramphenicol pretreatment
Experimental: Ugi-derived terminal alkynes target peptidoglycan synthesis/metabolism. B. subtilis was grown to mid-exponential phase (O.D.600˜0.6) and all cultures treated with Chloramphenicol (Cm) ([…]) for 15 min. Cultures were then exposed to vancomycin (Van) ([…]) or fgkc (4×MIC) for 1 h. Nucleotide sugars were extracted with hot water and separated by C18-RP-HPLC. (*) denotes retention time of UDP-MurNAc-pentapeptide.

P. difficile = test: MIC against Gram-positive organisms: P. difficile; assay type: cell-based, Clostridium difficile (Peptoclostridium difficile); conditions: Clostridioides difficile; read-out: Minimum inhibitory concentration (MIC) P. difficile

Sequence of FlgJ (GH73) (P15931 whole entry): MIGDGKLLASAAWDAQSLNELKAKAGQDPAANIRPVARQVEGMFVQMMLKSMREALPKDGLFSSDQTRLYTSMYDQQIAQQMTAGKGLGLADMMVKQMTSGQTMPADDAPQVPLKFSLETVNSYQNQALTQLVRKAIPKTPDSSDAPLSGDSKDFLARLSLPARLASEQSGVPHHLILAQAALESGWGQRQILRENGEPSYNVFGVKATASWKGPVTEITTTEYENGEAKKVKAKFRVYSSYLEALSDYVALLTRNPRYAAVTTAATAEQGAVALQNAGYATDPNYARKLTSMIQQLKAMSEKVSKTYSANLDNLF
Sequence of LytG (GH73) (O32083 30-282): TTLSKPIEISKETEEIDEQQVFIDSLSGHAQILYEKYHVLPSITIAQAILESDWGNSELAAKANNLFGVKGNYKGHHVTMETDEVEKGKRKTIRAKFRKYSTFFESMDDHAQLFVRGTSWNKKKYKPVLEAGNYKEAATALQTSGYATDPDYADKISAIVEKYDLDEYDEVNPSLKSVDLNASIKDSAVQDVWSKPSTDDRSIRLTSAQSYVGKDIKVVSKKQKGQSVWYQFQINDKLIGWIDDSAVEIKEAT

Structure (SMILES): CCCCNC(=O)C(C1CCCCC1)N(Cc1cn(C2OC(CO)C(O)C(O)C2NC(C)=O)nn1)C(=O)c1ccccc1I (stereo not shown) [BI.fgba]
inhibition of GlcNAcase LytG (LytG (GH73)): inhibits
inhibition of FlgJ (GH73) (FlgJ (GH73)): weak inhibition
MIC (B. subtilis [1]; Bacillus subtilis, read-out: minimum inhibitory concentration (MIC)): 63 µM (≈ 45.8 µg/mL)
bacteriostatic activity (B. subtilis [1]; bacterial strain B. subtilis): concentration-dependent bacteriostatic activity

Structure (SMILES): CC1=N[C@@H]2[C@@H](O)[C@H](O)[C@@H](CO)O[C@@H]2S1 [NAG-thiazoline]
effect on the viability of E. coli (E. coli): no effect

Structure (SMILES): COc1ccc(C(C(=O)NCc2ccccc2)N(C(=O)c2ccccc2I)c2ccccc2)cc1 (stereo not shown) [fbqb]
activity (structure-activity comparison) (B. subtilis [2]; 250 μM, compared to aliphatic derivatives): lower activity

Structure (SMILES): C#CCN(C(=O)c1ccccc1I)C(C(=O)NCCCC)C1CCCCC1 (stereo not shown) [fgba]
antibacterial activity against S. aureus (S. aureus): antibacterial activity
MIC (S. aureus): 2.81 µg/mL (≈ 5.85 µM)
inhibition of FlgJ (GH73) (FlgJ (GH73)): weak inhibition

Structure (SMILES): O=C(NCc1ccccc1)C(C1CCCCC1)N(C(=O)c1ccccc1I)C1CCCCC1 (stereo not shown) [fgkb]
antibacterial activity against B. subtilis Lyt G (B. subtilis [2]): antibacterial activity
degree of inhibition (smallest values of fluorescence) (B. subtilis [2]): highest degree of inhibition

Structure (SMILES): CCCCNC(=O)C(C1CCCCC1)N(C(=O)c1ccccc1I)C(C)(C)C (stereo not shown) [fgna]
MIC (P. difficile): 17.5 µg/mL (≈ 35.1 µM)

Structure (SMILES): CCCCNC(=O)C(C1CCCCC1)N(C(=O)c1ccccc1I)c1ccccc1 (stereo not shown) [fgqa]
MIC (S. aureus): 3.64 µg/mL (≈ 7.02 µM)

The next lines start with results.

MIC (S. pneumoniae): 3.62 µg/mL (≈ 7.04 µM)
Structure (SMILES): C#CCN(C(=O)c1ccccc1I)C(C(=O)NCc1ccccc1)C1CCCCC1 (stereo not shown) [fgbb]
antibacterial activity against S. pneumoniae (S. pneumoniae): antibacterial activity

MIC (S. pneumoniae): 3.56 µg/mL (≈ 7.03 µM)
Structure (SMILES): C#CCN(C(=O)c1ccccc1I)C(C(=O)NC1CCCCC1)C1CCCCC1 (stereo not shown) [fgbc]
antibacterial activity against S. pneumoniae (S. pneumoniae): antibacterial activity

MIC (B. subtilis [3]): 11.5 µg/mL (≈ 22 µM)
Structure (SMILES): CCCCNC(=O)C(C1CCCCC1)N(C(=O)c1ccccc1I)C1CCCCC1 (stereo not shown) [fgka]

MIC (B. subtilis [3]): 1.65 µg/mL (≈ 3 µM)
Structure (SMILES): O=C(NC1CCCCC1)C(C1CCCCC1)N(C(=O)c1ccccc1I)C1CCCCC1 (stereo not shown) [fgkc]
antibacterial activity against S. pneumoniae (S. pneumoniae): antibacterial activity
UDP-MurNAc-pentapeptide accumulation [4]: results in UDP-MurNAc-pentapeptide accumulation
antibacterial activity against B. subtilis Lyt G (B. subtilis [2]): antibacterial activity
degree of inhibition (smallest values of fluorescence) (B. subtilis [2]): highest degree of inhibition

Minimum inhibitory concentration (MIC), lowest concentration preventing color change blue to pink (B. subtilis [1]): 62.5 µM (≈ 30.3 µg/mL)
Structure (SMILES): CCCCNC(=O)C(C1CCCCC1)N(C(=O)c1ccccc1I)C(C)C (stereo not shown) [fgoa]

Minimum inhibitory concentration (MIC), lowest concentration preventing color change blue to pink (B. subtilis [1]): 250 µM (≈ 88.6 µg/mL)
Structure (SMILES): C#CCN(C(=O)c1ccccc1)C(C(=O)NCCCC)C1CCCCC1 (stereo not shown) [rgba]
